# Assays:
# [1] = test system: HCT-116; experiment: Growth inhibition of human HCT116 cells assessed as cell growth at 10 uM after 48 hrs by sulforhodamine B assay; assay type: functional; settings: HCT-116, 48 h, read-out: Activity
# [2] = test system: OVCAR-3; experiment: Growth inhibition of human OVCAR3 cells after 48 hrs by sulforhodamine B assay; assay type: functional, cell-based; settings: OVCAR-3, 48 h
# [3] = test system: SK-MEL-2; experiment: Growth inhibition of human SK-MEL-2 cells assessed as cell growth at 10 uM after 48 hrs by sulforhodamine B assay; assay type: functional; settings: SK-MEL-2, 48 h, read-out: Activity
# [4] = test system: HL-60(TB); experiment: Growth inhibition of human HL-60(TB) cells after 48 hrs by sulforhodamine B assay; assay type: functional; settings: HL-60, 48 h
# [5] = test system: 786-0; experiment: Growth inhibition of human 786-0 cells assessed as cell growth at 10 uM after 48 hrs by sulforhodamine B assay; assay type: functional; settings: 786-0, 48 h, read-out: Activity
# [6] = test system: HOP-62; experiment: Growth inhibition of human HOP62 cells assessed as cell growth at 10 uM after 48 hrs by sulforhodamine B assay; assay type: functional; settings: HOP-62, 48 h, read-out: Activity
# [7] = test system: NCI-H23; experiment: Growth inhibition of human NCI-H23 cells after 48 hrs by sulforhodamine B assay; assay type: functional; settings: NCI-H23, 48 h
# [8] = test system: SK-OV-3; experiment: Growth inhibition of human SKOV3 cells after 48 hrs by sulforhodamine B assay; assay type: functional; settings: SK-OV-3, 48 h
# [9] = test system: SK-MEL-5; experiment: Growth inhibition of human SK-MEL-5 cells after 48 hrs by sulforhodamine B assay; assay type: functional; settings: SK-MEL-5, 48 h
# [10] = test system: HT-29; experiment: Growth inhibition of human HT-29 cells assessed as cell growth at 10 uM after 48 hrs by sulforhodamine B assay; assay type: functional; settings: HT-29, 48 h, read-out: Activity
# [11] = test system: SR; experiment: Growth inhibition of human SR cells after 48 hrs by sulforhodamine B assay; assay type: functional
# [12] = test system: HOP-92; experiment: Growth inhibition of human HOP92 cells after 48 hrs by sulforhodamine B assay; assay type: functional, cell-based; settings: HOP-92, 48 h
# [13] = test system: HT-29; experiment: Growth inhibition of human HT-29 cells after 48 hrs by sulforhodamine B assay; assay type: functional; settings: HT-29, 48 h
# [14] = test system: 786-0; experiment: Growth inhibition of human 786-0 cells after 48 hrs by sulforhodamine B assay; assay type: functional; settings: 786-0, 48 h
# [15] = test system: NCI-H460; experiment: Growth inhibition of human NCI-H460 cells assessed as cell growth at 10 uM after 48 hrs by sulforhodamine B assay; assay type: functional; settings: NCI-H460, 48 h, read-out: Activity
# [16] = test system: M14; experiment: Growth inhibition of human M14 cells after 48 hrs by sulforhodamine B assay; assay type: functional; settings: M14, 48 h
# [17] = test system: SNB-19; experiment: Growth inhibition of human SNB19 cells after 48 hrs by sulforhodamine B assay; assay type: functional; settings: SNB-19, 48 h
# [18] = test system: ACHN; experiment: Growth inhibition of human ACHN cells after 48 hrs by sulforhodamine B assay; assay type: functional
# [19] = test system: PC-3; experiment: Growth inhibition of human PC3 cells assessed as cell growth at 10 uM after 48 hrs by sulforhodamine B assay; assay type: functional; settings: PC-3, 48 h, read-out: Activity
# [20] = test system: SNB-19; experiment: Growth inhibition of human SNB19 cells assessed as cell growth at 10 uM after 48 hrs by sulforhodamine B assay; assay type: functional; settings: SNB-19, 48 h, read-out: Activity
# [21] = test system: OVCAR-8; experiment: Growth inhibition of human OVCAR8 cells assessed as cell growth at 10 uM after 48 hrs by sulforhodamine B assay; assay type: functional; settings: OVCAR-8, 48 h, read-out: Activity
# [22] = test system: SK-OV-3; experiment: Growth inhibition of human SKOV3 cells assessed as cell growth at 10 uM after 48 hrs by sulforhodamine B assay; assay type: functional; settings: SK-OV-3, 48 h, read-out: Activity
# [23] = test system: SF-268; experiment: Growth inhibition of human SF268 cells assessed as cell growth at 10 uM after 48 hrs by sulforhodamine B assay; assay type: functional; settings: SF-268, 48 h, read-out: Activity
# [24] = test system: LOX IMVI; experiment: Growth inhibition of human LOXIMVI cells after 48 hrs by sulforhodamine B assay; assay type: functional
# [25] = test system: SK-MEL-28; experiment: Growth inhibition of human SK-MEL-28 cells after 48 hrs by sulforhodamine B assay; assay type: functional; settings: SK-MEL-28, 48 h
# [26] = test system: UO-31; experiment: Growth inhibition of human UO31 cells assessed as cell growth at 10 uM after 48 hrs by sulforhodamine B assay; assay type: functional; settings: UO-31, 48 h, read-out: Activity
# [27] = test system: M14; experiment: Growth inhibition of human M14 cells assessed as cell growth at 10 uM after 48 hrs by sulforhodamine B assay; assay type: functional; settings: M14, 48 h, read-out: Activity
# [28] = test system: UACC-257; experiment: Growth inhibition of human UACC257 cells after 48 hrs by sulforhodamine B assay; assay type: functional; settings: UACC-257, 48 h
# [29] = test system: Malme-3M; experiment: Growth inhibition of human MALME-3M cells assessed as cell growth at 10 uM after 48 hrs by sulforhodamine B assay; assay type: functional; settings: read-out: Activity
# [30] = test system: LOX IMVI; experiment: Growth inhibition of human LOXIMVI cells assessed as cell growth at 10 uM after 48 hrs by sulforhodamine B assay; assay type: functional; settings: read-out: Activity
# [31] = test system: COLO 205; experiment: Growth inhibition of human COLO205 cells assessed as cell growth at 10 uM after 48 hrs by sulforhodamine B assay; assay type: functional; settings: COLO 205, 48 h, read-out: Activity
# [32] = test system: UACC-62; experiment: Growth inhibition of human UACC62 cells after 48 hrs by sulforhodamine B assay; assay type: functional; settings: UACC-62, 48 h
# [33] = test system: NCI-H23; experiment: Growth inhibition of human NCI-H23 cells assessed as cell growth at 10 uM after 48 hrs by sulforhodamine B assay; assay type: functional; settings: NCI-H23, 48 h, read-out: Activity
# [34] = Growth inhibition of human HCC2998 cells after 48 hrs by sulforhodamine B assay; assay type: functional; settings: HCC 2998, 48 h
# [35] = read-out: LC50 (the source's name)
compound,measurement,setting,value
COc1cc(-c2nn(-c3cccc(NC(=O)c4ccccc4)c3)cc2-c2ccncc2)ccc1Cl,growth at 10 µM,[1],8.58%
same,GI50,[2],0.334 µM
same,IC50,[2],0.33 µM
same,TGI,[2],10.9 µM
same,CC50,[2]; [35],95.8 µM
same,growth at 10 µM,[3],-42.5%
same,GI50,[4],0.479 µM
same,TGI,[4],> 100 µM
same,CC50,[4]; [35],> 100 µM
same,growth at 10 µM,[5],21.3%
same,growth at 10 µM,[6],27.1%
same,GI50,[7],2.02 µM
same,LC50,[7],> 100 µM
same,TGI,[7],> 100 µM
same,GI50,[8],1.07 µM
same,TGI,[8],> 100 µM
same,CC50,[8]; [35],> 100 µM
same,GI50,[9],0.319 µM
same,LC50 (concentration killing 50% of cells),[9],7.1 µM
same,TGI,[9],1.38 µM
same,growth at 10 µM,[10],2.03%
same,GI50,[11],0.25 µM
same,TGI,[11],> 100 µM
same,CC50,[11]; [35],> 100 µM
same,GI50,[12],0.324 µM
same,IC50,[12],0.32 µM
same,LC50,[12],> 100 µM
same,TGI,[12],4.71 µM
same,GI50,[13],0.392 µM
same,TGI,[13],> 100 µM
same,CC50,[13]; [35],> 100 µM
same,GI50,[14],1.52 µM
same,TGI,[14],> 100 µM
same,CC50,[14]; [35],> 100 µM
same,growth at 10 µM,[15],2.74%
same,GI50,[16],0.575 µM
same,LC50 (concentration killing 50% of cells),[16],> 100 µM
same,TGI,[16],12.9 µM
same,GI50,[17],0.86 µM
same,LC50 (concentration killing 50% of cells),[17],> 100 µM
same,TGI,[17],> 100 µM
same,GI50,[18],0.754 µM
same,TGI,[18],> 100 µM
same,CC50,[18]; [35],> 100 µM
same,growth at 10 µM,[19],10.5%
same,growth at 10 µM,[20],50%
same,growth at 10 µM,[21],19.6%
same,growth at 10 µM,[22],42.1%
same,growth at 10 µM,[23],18.7%
same,GI50,[24],0.567 µM
same,LC50,[24],> 100 µM
same,TGI,[24],> 100 µM
same,GI50,[25],3.86 µM
same,LC50,[25],> 100 µM
same,TGI,[25],> 100 µM
same,growth at 10 µM,[26],29.8%
same,growth at 10 µM,[27],-3.82%
same,GI50,[28],0.859 µM
same,TGI,[28],> 100 µM
same,CC50,[28]; [35],> 100 µM
same,growth at 10 µM,[29],22.4%
same,growth at 10 µM,[30],17.4%
same,growth at 10 µM,[31],2.21%
same,GI50,[32],0.692 µM
same,LC50 (50% lethal concentration),[32],> 100 µM
same,TGI,[32],> 100 µM
same,growth at 10 µM,[33],33.8%
same,GI50,[34],2.32 µM
same,TGI,[34],22.4 µM
same,CC50,[34]; [35],> 100 µM

# Source: ChEMBL document CHEMBL2440076, “New triarylpyrazoles as broad-spectrum anticancer agents: design, synthesis, and biological evaluation” (Eur J Med Chem, 2013)
